Converted amounts (≈) assume the structure as drawn.

The test system of series [1] is Staphylococcus epidermidis ATCC14990. Briefly: Antimicrobial activity, MIC by agar dilution method. The series is classed as cell-based. To be noted: Mueller-Hinton agar, 37° C., 18 to 20 hr. Here is the method:
(§1) The antimicrobial activity of 2-hydroxykanamycin B and 2-hydroxykanamycin C was measured as the minimum inhibitory concentration (MIC) by an agar dilution method. Test bacteria which had been cultivated overnight in a growth medium were adjusted to 10^6 cells/ml, and one platinum loop thereof was inoculated in a Mueller-Hinton agar medium containing 2-hydroxykanamycin B or 2-hydroxykanamycin C (manufactured by Difco Laboratories Inc.), followed by cultivation at 37° C. for 18 to 20 hr.
In general terms: In agar dilution the substance is mixed into plates at graded concentrations.

The test system of series [2] is Salmonella typhimurium ATCC13311. The series is described as above. The series is classed as cell-based. The following applies: Salmonella enterica, Mueller-Hinton agar, 37° C., 18 to 20 hr. Here is the method: as §1
Series [3] deals with Staphylococcus aureus 209P JC-1. Described as above. The series is classed as cell-based. To be noted: Mueller-Hinton agar, 37° C., 18 to 20 hr. As to the method: as §1
For series [4], the system named is Bacillus subtilis ATCC6633. The series is described as above. The following applies: Mueller-Hinton agar, 37° C., 18 to 20 hr. In kind it is cell-based. Here is the method: as §1
The test system of series [5] is Staphylococcus aureus ATCC29213. Described as above. In kind it is cell-based. To be noted: Mueller-Hinton agar, 37° C., 18 to 20 hr. Here is the method:
as §1

Series [6] relates to Enterococcus faecium ATCC19434. The series is described as above. The series is classed as cell-based. To be noted: Mueller-Hinton agar, 37° C., 18 to 20 hr. As to the method: as §1
For series [7], the system named is Enterococcus faecalis ATCC29212. Described as above. The series is classed as cell-based. To be noted: Mueller-Hinton agar, 37° C., 18 to 20 hr. As to the method:
as §1

The test system of series [8] is Pseudomonas aeruginosa PA01. The series is described as above. In kind it is cell-based. The following applies: Mueller-Hinton agar, 37° C., 18 to 20 hr. As to the method:
as §1

Series [9] deals with Acinetobacter calcoaceticus ATCC23055. The description is as above. In kind it is cell-based. The following applies: Mueller-Hinton agar, 37° C., 18 to 20 hr. As to the method: as §1
In series [10] the test system is Escherichia coli ATCC25922. The description is as above. The series is classed as cell-based. The following applies: Mueller-Hinton agar, 37° C., 18 to 20 hr. Here is the method:
as §1

Series [11] can be described thus: Physicochemical properties: solubility.

What is called MIC is the smallest concentration in the dilution series that meets the test's criterion for growth inhibition. Take `NCC1OC(OC2C(N)C(O)C(N)C(OC3OC(CO)C(O)C(N)C3O)C2O)C(N)C(O)C1O` (centres unmarked) [2-Hydroxykanamycin B, 2-hydroxykanamycin B]: the MIC in series [1] came out at 1 µg/mL (≈ 2 µM); in series [2] it was 1 µg/mL (≈ 2 µM); in [3] it was 2 µg/mL (≈ 4 µM); in series [4], 0.5 µg/mL (≈ 1 µM); in series [5] it was 2 µg/mL (≈ 4 µM); in series [6], 64 µg/mL (≈ 128 µM). In addition, the MIC in series [7] is 64 µg/mL (≈ 128 µM); in series [8] it was 128 µg/mL (≈ 256 µM); in [9], 1 µg/mL (≈ 2 µM); in series [10], 4 µg/mL (≈ 8.01 µM). The Solubility entry in series [11] (in chloroform) is listed as “insoluble”; in series [11] (in ethyl acetate), “insoluble”; in series [11] (in water) it was “soluble”.
Consider `NC1C(O)C(CO)OC(OC2C(N)C(O)C(N)C(OC3OC(CO)C(O)C(O)C3N)C2O)C1O` (centres unmarked) [2-Hydroxykanamycin C, 2-hydroxykanamycin C], for which the MIC was 32 µg/mL (≈ 63.9 µM) in series [1]; 32 µg/mL (≈ 63.9 µM) in [2]; 128 µg/mL (≈ 256 µM) in series [3]; 16 µg/mL (≈ 32 µM) in series [4]; 128 µg/mL (≈ 256 µM) in [5]; more than 128 µg/mL in series [6]. For the same compound, the minimal inhibitory concentration (MIC) in [7] is more than 128 µg/mL; in series [8], more than 128 µg/mL; in series [9] it was 32 µg/mL (≈ 63.9 µM); in series [10], 128 µg/mL (≈ 256 µM). For the same compound, the figures for the Solubility entry in series [11] (in chloroform), in series [11] (in ethyl acetate) and in [11] (in water) were “insoluble”, “insoluble” and “soluble”, respectively.
